From patent US20220008296A1, “CAPSULE FORMULATION” (Capsugel Belgium NV, priority 2014, published 2022)

How the values were obtained:
[1] = acid resistance experiment: litmus colour inside oil-filled, band-sealed DRcaps capsule submerged in acid; type: physicochemical; design: key to Result (color): −: almost all red/unsuitable; +: about half red/passable; ++: all blue/excellent; conditions: for liquid color / acidification inside the capsule (in words) / Result (color): 120 minutes after submersion in JP first liquid pH1.2, 37°; for liquid color / acidification inside the capsule (in words): Example 2; for Result (color): colour of litmus powder in the fill of a DRcaps capsule, n=3
Description: The fine powder of a litmus reagent that changes to red in response to acid (blue, Wako Pure Chemical Industries Ltd. high grade), used as an active ingredient, is dispersed or dissolved in 0.2% by weight each of MCT, which is an edible oil (medium chain fatty acid triglyceride, coconad MT (made by Kao Co.) and glycerin, which is a water-based edible additive (made by Kao Co.) (dissolves very readily in water, comparative example). Then, 300 μL each of this solution is loaded into the separated body portion of an acid resistant hard capsule made by Capsugel (DRcaps (trademark), size no. 2, transparent no color). Then, a capsule formulation is prepared by sealing the fitted part of the cap portion and the body portion of the hard capsule using a band sealing solution (see FIG. 1). It should be noted that the band sealing solution is produced based on the information described in International Application PCT/US2013/041838 (application date May 20, 2013) (title of invention “ACID RESISTANT BANDING SOLUTION FOR TWO PIECE HARD CAPSULES”) wherein US Patent Application No. 61/707,135 (application date: Sep. 28, 2012) forms the basic application, which is an undisclosed application. The composition of the band sealing solution is ethanol: 59.9% by weight, shellac: 37.0% by weight, water: 1.6% by weight, and surfactant (sorbitan fatty acid aster and glycerin fatty acid ester) 1.5% by weight.
(§1) These capsule formulations are wrapped in wire to prevent the capsule formulations from floating up, and submerged in the first liquid (pH1.2 liquid) in the Japanese Pharmacopoeia which is maintained at 37° to simulate the gastric acid inside a living organism.
The experiment was carried out with the same conditions used in example 1 (amount of oil, measurement conditions, measurement time, and the like), and the effect on acid resistance when another oil or surfactant is enclosed in the capsule was examined. In this example, the following criteria were determined based on the color of the fine litmus powder dissolved or dispersed in oil enclosed in a capsule.
as §1, with “were” for “are”, “Pharmacopoeia” for “Pharmacopoeia which is”, “organism. The color of the liquid in the capsule 120 minutes after submersion is shown (see FIG. 4).” for “organism.”
It should be noted that because the four oils, DHA, rice germ oil, vitamin E, and vitamin A, are light yellow to dark green, visually confirming the change of the fine litmus powder from blue to red due to acid seeping into oil within the capsule was difficult. Therefore, the color was confirmed by enlarging the litmus particles dispersed within the oil from outside the capsule using a microscope. The determination criteria for this was the same as described above (see FIG. 5).

[2] = cited from earlier work

Row | Compound | liquid color / acidification inside the capsule (in words) [1] | liquid color in the capsule ([1]; after 20 minutes in JP first liquid pH1.2, 37°, Example 1) | Result (color) [1] | Specific Gravity (25° C.) [2]
1 | OCC(O)CO [Glycerin, reference compound] | the entire inside of the capsule turned red | the entire inside of the capsule turned red | − | 1.264
2 | Sorbitan fatty acid ester | the entire inside of the capsule turned red |  | − | 0.95
3 | Glycerin fatty acid ester | the entire inside of the capsule turned red |  | − | 1.02
4 | Vitamin A | the interior of the capsule did not become acidic |  | ++ | 0.92
